Results: BindingDB's records for doi:10.1021/acs.jmedchem.9b01161 (Research Triangle Institute, 2019)
pIC50: −log10 of the molar value.

How the values were obtained:
Cannabinoid receptor 1 [1] = target: T1, Cannabinoid receptor 1 (Homo sapiens, UniProt P21554); assay: Allosteric modulator activity at human CB1 receptor expressed in HEK293 cell membranes assessed as suppression of 100 nM CP55,940-induced [35S]GTPgammaS binding incubated for 60 mins by scintillation counting method
Cannabinoid receptor 1 [2] = target: T1, Cannabinoid receptor 1; assay: Allosteric modulator activity at human CB1 receptor expressed in CHO-RD-HGA16 cells co-expressing Galpha16 assessed as suppression of 100 nM CP55,940-induced calcium mobilization pre-incubated for 15 mins by Calcium 5 dye based FLIPR assay

T1 sequence (P21554 whole entry): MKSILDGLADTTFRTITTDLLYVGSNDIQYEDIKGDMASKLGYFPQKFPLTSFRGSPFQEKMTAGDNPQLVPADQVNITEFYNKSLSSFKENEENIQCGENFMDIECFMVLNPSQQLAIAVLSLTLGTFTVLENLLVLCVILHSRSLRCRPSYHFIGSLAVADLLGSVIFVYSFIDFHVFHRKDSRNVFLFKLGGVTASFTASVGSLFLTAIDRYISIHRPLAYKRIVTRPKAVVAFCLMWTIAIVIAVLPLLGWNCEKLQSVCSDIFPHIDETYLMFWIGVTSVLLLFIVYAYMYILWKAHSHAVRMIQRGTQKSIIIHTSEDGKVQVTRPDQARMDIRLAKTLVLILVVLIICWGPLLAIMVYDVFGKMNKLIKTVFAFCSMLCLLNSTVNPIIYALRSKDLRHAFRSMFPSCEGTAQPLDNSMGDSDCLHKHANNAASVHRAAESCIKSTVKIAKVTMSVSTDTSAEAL

SMILES | pIC50 (Cannabinoid receptor 1 [1]) | pIC50 (Cannabinoid receptor 1 [2])
O=C(Nc1ccc(Cl)cc1)N[C@H]1C[C@H]1c1ccccc1 | < 5.00 | < 5.00
COc1ccc(-c2cccc(N3CCCC3)n2)cc1NC(=O)Nc1ccc(Cl)cc1 | < 5.00 | –
